What is called MIC is the least concentration at which growth counts as inhibited.

In the assay the test system is Mycobacterium tuberculosis SMR. Nature of the assay: Antimicrobial activity of mimosamycin against tubercle bacilli (Table 4). In kind it is cell-based. Conditions: 672 h.

≈ marks a conversion by molar mass, not a printed value.

With `COC1=C(C)C(=O)c2cc(=O)n(C)cc2C1=O` [Mimosamycin], it took 1.56 µg/mL (≈ 6.69 µM) to inhibit growth (MIC).

These data come from patent US4127446A, “Process for producing antibiotics mimosamycin and chlorocarcins A, B and C” (priority 1975, dated 1978).
